Laboratory results reported in patent US20100003217A1, “Compounds and Pharmaceutical Compositions for the Treatment of Viral Infections” (priority 2008, published 2010).
Values belong to the molecule of their own block, whether it stands above or below them.

Legend:
[1] = Total radioactivity in rat liver after [^14C]-Compound 1; format: in vivo, male Sprague-Dawley rats
Description: Isotopically diluted [^14C]-Compound 1 was administered intravenously to male Sprague-Dawley rats at 50 mg/kg or by oral gavage at 100 mg/kg.
Liver samples were collected at 2, 6 and 24 h postdose from the animals of both the IV and the PO dose groups. The samples were flash frozen after excision and kept on dry ice during homogenization. The homogenization was conducted on dry ice in 70% methanol-30% water containing 20 mM EDTA and 20 mM EGTA (about 1× (w/v) weight of the liver). Triplicate weighed aliquots (about 500 mg) were combusted in the Packard Sample Oxidizer and followed by LSC analysis to determine radioactivity […]). The average data for levels of total radioactivity in liver are summarized below.

[2] = test system: HCV genotype 1b replicon (Zluc cells); test: HCV luciferase replicon assay; format: cell-based, hepatitis C virus; conditions: Hepatitis C virus, 72 h, 3 days
Description: The HCV luciferase replicon assay measures the ability of a test compound to inhibit HCV replication in cell culture after 3 days of treatment in a human hepatoma cell line (Huh-7) bearing the HCV genotype 1b replicon and a luciferase-neomycin phosphotransferase fusion gene. The inhibition of HCV replication was measured by quantification of luciferase protein expression. The HCV luciferase replicon was constructed by fusing a luciferase gene to the amino terminus of the neomycin phosphotransferase gene of the ZS11 HCV replicon. The ZS11 HCV replicon (Zhu Q, Guo J-T, and Seeger C, 2003) is derived from the SP1 replicon, but contains three cell culture-adapted mutations: E1202G (NS3), S22041 (NS5A), and D2254E (NS5A). These mutations allow for efficient in vitro replication. The luciferase reporter gene was amplified from the pGL4.13[luc2/SV40] vector (Promega Corp.). The replicon resulting from the luciferase-neomycin fusion (ZS11-luc) was stably-transfected into Huh-7 cells, yielding the Zluc cell line.
The luciferase replicon assay is summarized as follows: Solid white 96-well tissue culture plates (BD Falcon) were seeded with Zluc cells. Antiviral compound solutions were made up freshly in medium as 2×-concentrated stocks. Eight additional 3-fold drug dilutions were prepared from these stocks in medium for a total of 9 dilutions. At least four hours after Zluc cells were seeded, drug treatment was initiated by adding one volume of each 2×-concentrated drug dilution to one volume of cells/medium in the tissue culture plates. Cells were then incubated for 3 days at 37° C./5% CO2.
The media/compound was then removed from the plates and the ONE-glo Luciferase assay reagent (Promega) was added to each well. The assay plates were shaken for 3 minutes at room temperature and luciferase activity for each well was measured with a 1 sec read time on the Victor^3V multilabel counter using a 700 nm cut-off filter (Perkin Elmer). EC50 values were calculated from dose response curves from the resulting best-fit equations determined by Microsoft Excel and XLfit 4.1 software.

[3] = target: CYP2E1 (Homo sapiens, UniProt P05181); test: Incubation with human recombinant CYP450 supersomes, 2E1; format: in vitro ADME; conditions: CYP450 2E1 supersomes, 60 min, 10 μM, average of two experiments
Description: (§1) Supersomes—Incubations were conducted in a final volume of 0.1 mL reaction buffer (50-100 mM potassium phosphate, pH 7.4 or 100 mM Tris-HCL, pH 7.4) according to protocol provided with each CYP450 supersome. Each reaction contained […] of CYP450 supersome, 1.3 mM NADP^+, 3.3 mM glucose-6-phosphate, 0.4 U/mL glucose-6-phosphate dehydrogenase, 3.3 mM MgCl2 and 10 μM Compound 1. Following incubation for 60 min at 37° C., 100 μL of stop solution (acetonitrile:methanol; 1:1) was added and samples centrifuged for 10 min at 10,000×g. The supernatant was then dried and reconstituted in 10 mM potassium phosphate, pH 5, further transferred to an HPLC glass vial and analyzed by HPLC-UV (described above).

[4] = target: CYP1A2 (Homo sapiens, UniProt P05177); test: Incubation with human recombinant CYP450 supersomes, 1A2; format: in vitro ADME; conditions: CYP450 1A2 supersomes, 60 min, 10 μM, average of two experiments
Description: as §1

[5] = In vitro intracellular half-life of 2′-C-methyl guanosine-5′-triphosphate (Compound 7) in human primary hepatocytes; format: in vitro ADME; conditions: human, primary hepatocytes (cellular extracts)
Description: (§2) Primary hepatocytes were incubated with 10 μM [^14C]-Compound 1 ([…]) or [^14C]-2′-C-methyl guanosine (127 DPM/μmol) for 24 hours at which time the incubation medium was removed and the cell monolayer carefully washed two times with warm (37° C.) PBS and placed back in culture with drug-free medium. At selected times up to 24 hours, the medium was removed and the cell monolayers carefully washed two times with ice-cold PBS. Following the last wash, all PBS was carefully removed and the cell monolayers processed and extracted as previously described. […]

[6] = test system: human primary hepatocytes; test: as above; format: in vitro ADME; conditions: for Decay of Compound 7: level in cellular extracts: human hepatocytes Hu775; for Compound 7 levels after 24 hours without drug / reduction of Compound 7 levels after 24 hours without drug / Compound 7 levels at time zero: human hepatocytes
Description: as §2

[7] = Group 1A: IV 50 mg/kg, 2 h postdose
[8] = Group 1B: IV 50 mg/kg, 6 h postdose
[9] = Group 1C: IV 50 mg/kg, 24 h postdose
[10] = Group 2A: PO 100 mg/kg, 2 h postdose
[11] = Group 2B: PO 100 mg/kg, 6 h postdose
[12] = Group 2C: PO 100 mg/kg, 24 h postdose
[13] = [^14C]-2′-C-methyl guanosine removed

Chain of CYP2E1 (P05181 whole entry): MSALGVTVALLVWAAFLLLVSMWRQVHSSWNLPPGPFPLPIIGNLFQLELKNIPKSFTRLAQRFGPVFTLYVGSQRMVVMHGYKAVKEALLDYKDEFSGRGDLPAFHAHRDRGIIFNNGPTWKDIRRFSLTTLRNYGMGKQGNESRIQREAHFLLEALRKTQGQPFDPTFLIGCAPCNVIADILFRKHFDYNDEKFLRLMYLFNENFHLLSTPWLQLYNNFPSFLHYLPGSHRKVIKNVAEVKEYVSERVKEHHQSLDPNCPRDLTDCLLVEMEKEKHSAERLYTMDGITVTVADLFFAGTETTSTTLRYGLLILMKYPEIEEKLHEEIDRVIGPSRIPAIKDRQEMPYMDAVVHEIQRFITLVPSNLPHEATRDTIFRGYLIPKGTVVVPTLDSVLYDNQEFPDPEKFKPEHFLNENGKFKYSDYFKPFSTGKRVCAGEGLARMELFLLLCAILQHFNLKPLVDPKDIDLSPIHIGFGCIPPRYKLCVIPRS
Chain of CYP1A2 (P05177 whole entry): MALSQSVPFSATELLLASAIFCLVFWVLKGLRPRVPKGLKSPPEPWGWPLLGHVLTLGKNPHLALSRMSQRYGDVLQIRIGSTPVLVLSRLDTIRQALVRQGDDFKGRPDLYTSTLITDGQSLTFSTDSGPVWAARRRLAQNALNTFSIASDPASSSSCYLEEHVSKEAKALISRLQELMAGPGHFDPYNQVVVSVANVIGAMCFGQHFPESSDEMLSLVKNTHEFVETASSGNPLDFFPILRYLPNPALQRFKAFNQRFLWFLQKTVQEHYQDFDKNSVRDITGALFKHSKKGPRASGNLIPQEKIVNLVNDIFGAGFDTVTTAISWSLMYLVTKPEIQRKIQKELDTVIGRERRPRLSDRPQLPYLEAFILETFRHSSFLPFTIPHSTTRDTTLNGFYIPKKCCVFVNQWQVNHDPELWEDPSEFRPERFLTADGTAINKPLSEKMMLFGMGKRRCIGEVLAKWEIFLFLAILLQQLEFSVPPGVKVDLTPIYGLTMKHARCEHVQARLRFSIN

SMILES: CC(C)(CO)C(=O)SCCOP(=O)(NCc1ccccc1)OC[C@H]1O[C@@H](n2cnc3c(=O)[nH]c(N)nc32)[C@](C)(O)[C@@H]1O (mixture of isomers) [Compound 1, 3-hydroxy-2,2-dimethyl-thiopropionic acid S-(2-{[(2R,3R,4R,5R)-5-(2-amino-6-oxo-1,6-dihydro-purin-9-yl)-3,4-dihydroxy-4-methyl-tetrahydro-furan-2-ylmethoxy]-benzylamino-phosphoryloxy}-ethyl) ester]
Concentration of total radioactivity in liver as μg equivalents/gram [1, 7]: 206 ± 24 μg equivalents/gram
Total radioactivity in liver as % AD [1, 7]: 15.5 ± 0.7 % AD
Concentration of total radioactivity in liver as μg equivalents/gram [1, 8]: 137 ± 12 μg equivalents/gram
Total radioactivity in liver as % AD [1, 8]: 10.1 ± 1.0 % AD
Concentration of total radioactivity in liver as μg equivalents/gram [1, 9]: 23.2 ± 3.1 μg equivalents/gram
Total radioactivity in liver as % AD [1, 9]: 1.76 ± 0.11 % AD
Concentration of total radioactivity in liver as μg equivalents/gram [1, 10]: 5.09 ± 0.78 μg equivalents/gram
Total radioactivity in liver as % AD [1, 10]: 0.20 ± 0.04 % AD
Concentration of total radioactivity in liver as μg equivalents/gram [1, 11]: 10.3 ± 1.2 μg equivalents/gram
Total radioactivity in liver as % AD [1, 11]: 0.37 ± 0.05 % AD
Concentration of total radioactivity in liver as μg equivalents/gram [1, 12]: 4.08 ± 1.10 μg equivalents/gram
Total radioactivity in liver as % AD [1, 12]: 0.17 ± 0.03 % AD
total radioactivity in liver, % of the administered dose ([1]; IV [^14C]Compound 1, 2 h): 16%
total radioactivity in liver, % of the administered dose ([1]; IV [^14C]Compound 1, 6 h): 10%
total radioactivity in liver, % of the administered dose ([1]; IV [^14C]Compound 1, 24 h): 1.8%
total radioactivity in liver ([1]; IV, 2 h): 206 μg equivalents of Compound 1/g of liver
total radioactivity in liver ([1]; IV, 6 h): 137 μg equivalents of Compound 1/g of liver
total radioactivity in liver ([1]; IV, 24 h): 23 μg equivalents of Compound 1/g of liver
total radioactivity in liver ([1]; oral administration, 2 h): 5 μg equivalents of Compound 1/g of liver
total radioactivity in liver, % of the dose ([1]; oral administration, 2 h): 0.2%
total radioactivity in liver ([1]; oral administration, 6 h): 10 μg equivalents of Compound 1/g of liver
total radioactivity in liver, % of the dose ([1]; oral administration, 6 h): 0.4%
total radioactivity in liver ([1]; oral administration, 24 h): 4 μg equivalents of Compound 1/g of liver
total radioactivity in liver, % of the dose ([1]; oral administration, 24 h): 0.2%
EC50 [2]: 68 ± 0.4 nM
% Residual Compound 1 [3]: 100%
% Residual Compound 1 [4]: 104%

half-life at 10 μM ([5]; in vitro half-life for Compound 7, human hepatocytes, after 2′-C-methyl guanosine): 10.8 h
half-life at 10 μM ([5]; in vitro half-life for Compound 7, human hepatocytes, following [^14C]-Compound 1): 17.4 h
half-life at 10 μM ([5]; in vitro intracellular t1/2 of Compound 7, human hepatocytes Hu775, after 24 h incubation with 10 μM [^14C]-2′-C-methyl guanosine, linear regression): 10.8 h
half-life at 10 μM ([5]; in vitro intracellular t1/2 of Compound 7, human hepatocytes Hu775, after 24 h incubation with 10 μM [^14C]-Compound 1, linear regression): 17.4 h
Decay of Compound 7: level in cellular extracts ([6]; after 24 h incubation with 10 μM [^14C]-2′-C-methyl guanosine, decay time 0 h): 266 pmol/million cells
Decay of Compound 7: level in cellular extracts ([6]; after 24 h incubation with 10 μM [^14C]-2′-C-methyl guanosine, decay time 1 h): 259 pmol/million cells
Decay of Compound 7: level in cellular extracts ([6]; after 24 h incubation with 10 μM [^14C]-2′-C-methyl guanosine, decay time 4 h): 217 pmol/million cells
Decay of Compound 7: level in cellular extracts ([6]; after 24 h incubation with 10 μM [^14C]-2′-C-methyl guanosine, decay time 8 h): 190 pmol/million cells
Decay of Compound 7: level in cellular extracts ([6]; after 24 h incubation with 10 μM [^14C]-2′-C-methyl guanosine, decay time 24 h): 58.0 pmol/million cells
Decay of Compound 7: level in cellular extracts ([6]; after 24 h incubation with 10 μM [^14C]-Compound 1, decay time 0 h): 692 pmol/million cells
Decay of Compound 7: level in cellular extracts ([6]; after 24 h incubation with 10 μM [^14C]-Compound 1, decay time 1 h): 702 pmol/million cells
Decay of Compound 7: level in cellular extracts ([6]; after 24 h incubation with 10 μM [^14C]-Compound 1, decay time 4 h): 597 pmol/million cells
Decay of Compound 7: level in cellular extracts ([6]; after 24 h incubation with 10 μM [^14C]-Compound 1, decay time 8 h): 497 pmol/million cells
Decay of Compound 7: level in cellular extracts ([6]; after 24 h incubation with 10 μM [^14C]-Compound 1, decay time 24 h): 273 pmol/million cells
Compound 7 levels after 24 hours without drug [6, 13]: 58 pmol/million cells
reduction of Compound 7 levels after 24 hours without drug [6, 13]: 78%
Compound 7 levels after 24 hours without drug ([6]; [^14C]-Compound 1 removed): 273 pmol/million cells
reduction of Compound 7 levels after 24 hours without drug ([6]; [^14C]-Compound 1 removed): 61%
Compound 7 levels at time zero ([6]; after 24 h with 10 μM [^14C]-Compound 1): 692 pmol/million cells
Compound 7 levels at time zero ([6]; after 24 h with [^14C]-2′-C-methyl guanosine): 266 pmol/million cells
SMILES: C[C@@]1(O)[C@H](O)[C@@H](COP(=O)(O)OP(=O)(O)OP(=O)(O)O)O[C@H]1n1cnc2c(=O)[nH]c(N)nc21 [Compound 7, [(2R)-2-methyl-β-D-ribofuranosyl]guanine 5′-triphosphate]
